Assay results: US20250195515A1, “COMPOSITION FOR TREATING THE EYE” (BITOP AG, priority 2014, published 2025)

How the values were obtained:
[1] = test system: patients suffering from a mild to moderate form of keratoconjunctivitis sicca; assay type: in vivo, human; settings: for tolerability: human, in vivo
Experimental: In one study, 64 patients suffering from a mild to moderate form of keratoconjunctivitis sicca were examined. […] The majority (72%) of the patients were female. For at least one eye in each case, the tear break-up time (TBUT), i.e., the time until dry spots reappear on the cornea after blinking, was less than 10 sec. The TBUT was used as the main parameter for the treatment assessment. Over a period of 28 days, 34 patients were treated with an ectoine-containing composition and the other 30 patients with hyaluronic acid as reference. 59 of the patients finished the study as planned; 5 patients left prematurely. […] Especially the sensation of foreign bodies and the sensation of tired eyes were rated as improved following the treatment. 78.8% of the ectoine-treated patients and 71.4% of the hyaluronic acid-treated patients would continue use.

[2] = test system: patients suffering from a mild to moderate form of keratoconjunctivitis sicca; test: Clinical study, lacrimation according to Schirmer's test II; assay type: in vivo, human
Experimental: In one study, 64 patients suffering from a mild to moderate form of keratoconjunctivitis sicca were examined. […] The majority (72%) of the patients were female. For at least one eye in each case, the tear break-up time (TBUT), i.e., the time until dry spots reappear on the cornea after blinking, was less than 10 sec. The TBUT was used as the main parameter for the treatment assessment. Over a period of 28 days, 34 patients were treated with an ectoine-containing composition and the other 30 patients with hyaluronic acid as reference. 59 of the patients finished the study as planned; 5 patients left prematurely. Lacrimation was examined according to the Schirmer's test II. This was lower for the ectoine patients than for the hyaluronic acid patients both at the start (8.8 mm/5 min compared to 16.0 mm/5 min) and at the end (10.6 mm/5 min compared to 16.8 mm/5 min) of the treatment, it being possible to observe a more distinct improvement for the ectoine-treated patients than for the hyaluronic acid-treated patients (1.8 mm/5 min compared to 0.8 mm/5 min).

[3] = test system: patients suffering from a mild to moderate form of keratoconjunctivitis sicca; test: Clinical study, OSDI (ocular surface disease index) quality of life; assay type: in vivo, human; settings: within the 28-day observation period
Experimental: In one study, 64 patients suffering from a mild to moderate form of keratoconjunctivitis sicca were examined. […] The majority (72%) of the patients were female. For at least one eye in each case, the tear break-up time (TBUT), i.e., the time until dry spots reappear on the cornea after blinking, was less than 10 sec. The TBUT was used as the main parameter for the treatment assessment. Over a period of 28 days, 34 patients were treated with an ectoine-containing composition and the other 30 patients with hyaluronic acid as reference. 59 of the patients finished the study as planned; 5 patients left prematurely. The quality of life of the patients was determined on the basis of the OSDI (ocular surface disease index). The OSDI assessment consists of 12 questions answered by the patients on a scale of 0 to 4 (0=never; 4=always). The higher the OSDI value, the stronger the impairment of the daily life of the disease. Within the observation period, it was possible to observe a decrease of 17.7 points in the case of the ectoine-treated patients and of 17.2 points in the case of the hyaluronic acid-treated patients.

[4] = Atomic force microscopy (AFM) topography of Langmuir-Blodgett-transferred meibomian lipid layers; assay type: physicochemical, human
Experimental: The topography of the surface of the lipid layers was examined with the aid of an atomic force microscope (atomic force microscopy, AFM). To this end, the lipid layer was transferred to a solid surface using the Langmuir-Blodgett technique; thereafter, the AFM measurements were carried out at pressures of 5 mN/m, 20 mN/m and 23.5 mN/m and 20° C. At a relatively low pressure of 5 mN/m, it was possible to observe small fibrous structures of up to approx. 5 nm in height distributed over the entire area. Layers of hydrophobic lipids such as cholesteryl esters and triglycerides might be involved here. At higher pressures of 20 mN/m, the number of fibrous structures increased.
In the presence of 100 mM ectoine, droplet-type structures of up to approx. 300 nm in height were observed. At higher ectoine concentrations, the diameter of the droplet-type structures increased.

[5] = Compression of meibomian lipid monolayers on PBS subphase with different ectoine concentrations (surface pressure-area isotherms); assay type: physicochemical, human
Experimental: Meibomian lipids were obtained from the meibomian glands of four healthy volunteers. The lipids were dissolved in chloroform/methanol (1:1, v/v) and applied to an aqueous subphase (PBS, phosphate-buffered saline solution, pH 7.4, T=20° C.). After an equilibration time of 10-15 min, the monolayers were compressed at 2.9 cm^2/min. The subphase was provided with different ectoine concentrations. The result of the compression of the lipid film on a PBS subphase without ectoine is depicted in FIG. 2A. No phase transitions are observed up to a surface pressure of 20 mN/m. […] Ectoine therefore enlarges the spaces between the molecules.

[6] = test system: patients suffering from a mild to moderate form of keratoconjunctivitis sicca; test: Clinical study, tear break-up time (TBUT); assay type: in vivo, human
Experimental: In one study, 64 patients suffering from a mild to moderate form of keratoconjunctivitis sicca were examined. […] The majority (72%) of the patients were female. For at least one eye in each case, the tear break-up time (TBUT), i.e., the time until dry spots reappear on the cornea after blinking, was less than 10 sec. The TBUT was used as the main parameter for the treatment assessment. Over a period of 28 days, 34 patients were treated with an ectoine-containing composition and the other 30 patients with hyaluronic acid as reference. 59 of the patients finished the study as planned; 5 patients left prematurely. On average, the TBUT improved within the 28-day observation period by 2.6 sec (p=0.0011) for ectoine-treated patients and by 1.1 sec (p=0.1686) for the hyaluronic acid-treated patients.

Compound | tolerability [1] | lacrimation, Schirmer's test II, at the end of the treatment ([2]; end of the 28-day treatment) [mm/5 min] | improvement of lacrimation, Schirmer's test II ([2]; end vs start of the 28-day treatment) [mm/5 min] | lacrimation, Schirmer's test II, at the start of the treatment ([2]; start of the treatment (baseline)) [mm/5 min] | decrease of OSDI [3] [points] | formation of droplet-type structures ([4]; 50 mM ectoine, AFM) | thickness of the lipid layer at the sites of the droplet-type clusters ([4]; 100 mM ectoine in the lacrimal fluid (model of FIG. 1B), approx. 20 nm in the absence of ectoine) | height of droplet-type structures ([4]; 100 mM ectoine, AFM, 20° C.) [nm] | diameter of the droplet-type structures ([4]; ectoine concentrations higher than 100 mM, AFM) | hysteresis of compression-expansion curves ([5]; ectoine in PBS subphase vs without ectoine) | shift of the compression isotherm (area per molecule) ([5]; ectoine in PBS subphase, pH 7.4, 20° C., vs subphase without ectoine, effect is concentration-dependent) | estimation of the effectiveness of the treatment according to patients' estimates ([1]; after 28-day treatment) [points] | improvement of TBUT in patients with severe keratoconjunctivitis sicca and TBUT<5 sec ([6]; 28 days, ectoine compared with hyaluronic acid) | improvement of TBUT on average ([6]; within the 28-day observation period) [s]
hyaluronic acid [reference compound] | generally well tolerated |  |  |  |  |  |  |  |  |  |  |  |  | 
CC1=N[C@H](C(=O)O)CCN1 [ectoine, (S)-2-methyl-1,4,5,6-tetrahydropyrimidine-4-carboxylic acid] | generally well tolerated | 10.6 | 1.8 | 8.8 | 17.7 | comparatively scattered and distinctly smaller | approx. 200 nm | ≤ 300 | increased | no significant differences | isotherm shifts in the direction of a larger area per molecule | 0.9 | stronger improvement | 2.6
